According to patent publication US20020049223A1, “Quinoline and naphthyridine carboxylic acid antibacterials” (priority 1999, published 2002):

Columns and labels:
[1] = tested on: Staphylococcus aureus ATCC 6538P; experiment: Assay A: in vitro antibacterial activity, agar dilution MIC; assay type: cell-based; settings: Table 1, Assay A, BHI agar, 35-37° C., about 20 to 24 hours; code A = Staphylococcus aureus ATCC 6538P; unit assumed
Procedure: (§1) Assay A. Determination of Biological Activity In Vitro Assay of Antibacterial Activity
(§2) Representative compounds of the invention were assayed in vitro for antibacterial activity. Twelve petri dishes containing successive aqueous dilutions of the test compound mixed with sterilized Brain Heart Infusion (BHI) agar (Difco 0418-01-5) (10 mL) were prepared. Each plate was inoculated with 1:100 (or 1:10 for slow-growing strains, such as Micrococcus and Streptococcus) dilutions of up to 32 different microorganisms using a Steers replicator block. The inoculated plates were incubated at 35-37° C. for about 20 to about 24 hours. In addition, a control plate with BHI agar and no test compound was prepared and incubated at the beginning and end of each test.
(§3) An additional plate containing a compound having known susceptibility patterns for the organisms being tested and belonging to the same antibiotic class as the test compound was also prepared and incubated as a further control and to provide test-to-test comparability. Ciprofloxacin was used for this purpose.
(§4) After incubation, each plate was visually inspected. The minimum inhibitory concentration (MIC) was defined as the lowest concentration of drug yielding no growth, a slight haze, or sparsely isolated colonies on the inoculum spot as compared to the growth control.

[2] = tested on: Haemophilus influenzae DILL AMP R; experiment: as above; assay type: cell-based; settings: Table 1, Assay A, BHI agar, 35-37° C., about 20 to 24 hours; code E = Haemophilus influenzae DILL AMP R; unit assumed
Procedure: as §1, §2, §3, §4

[3] = tested on: Moraxella catarrahalis 2604; experiment: as above; assay type: cell-based; settings: Table 1, Assay A, BHI agar, 35-37° C., about 20 to 24 hours; code C = Moraxella catarrahalis 2604; unit assumed
Procedure: as §1, §2, §3, §4

[4] = tested on: Enterococcus faecalis PIU 1967; experiment: as above; assay type: cell-based; settings: Table 1, Assay A, BHI agar, 35-37° C., about 20 to 24 hours; code B = Enterococcus faecalis PIU 1967; unit assumed
Procedure: as §1, §2, §3, §4

[5] = tested on: Escherichia coli JUHL; experiment: as above; assay type: cell-based; settings: Table 1, Assay A, BHI agar, 35-37° C., about 20 to 24 hours; code D = Escherichia coli JUHL; unit assumed
Procedure: as §1, §2, §3, §4

[6] = tested on: Streptococcus pneumoniae ATCC 6303; experiment: as above; assay type: cell-based; settings: Table 1, Assay A, BHI agar, 35-37° C., about 20 to 24 hours; code F = Streptococcus pneumoniae ATCC 6303; unit assumed
Procedure: as §1, §2, §3, §4

SMILES	melting point	Antibacterial Activity (MIC's), A [1]	Antibacterial Activity (MIC's), E [2]	Antibacterial Activity (MIC's), C [3]	Antibacterial Activity (MIC's), B [4]	Antibacterial Activity (MIC's), D [5]	Antibacterial Activity (MIC's), F [6]
COc1c(-c2cc3c(s2)CCC(O)C3)ccc2c(=O)c(C(=O)O)cn(C3CC3)c12 (stereo not shown) [Example 42, 1-cyclopropyl-7-(5-hydroxy-4,5,6,7-tetrahydro-1-benzothien-2-yl)-8-methoxy-4-oxo-1,4-dihydro-3-quinolinecarboxylic acid]	232 to 233 °C	0.02 µg/mL	0.125 µg/mL	0.02 µg/mL	0.39 µg/mL	0.78 µg/mL	0.25 µg/mL
CC1NCCc2cc(-c3nc4c(cc3F)c(=O)c(C(=O)O)cn4C3CC3)sc21.Cl (stereo not shown) [Example 22, 1-cyclopropyl-6-fluoro-7-(7-methyl-4,5,6,7-tetrahydrothieno(2,3-c)pyridin-2-yl)-4-oxo-1,4-dihydro[1,8]naphthyridine-3-carboxylic acid hydrochloride]	293 to 294 °C	0.2 µg/mL	0.25 µg/mL	0.39 µg/mL	0.78 µg/mL	0.78 µg/mL	2 µg/mL
COc1c(-c2cc3c(s2)SCCC3N)ccc2c(=O)c(C(=O)O)cn(C3CC3)c12.Cl (stereo not shown) [Example 37, 7-(4-amino-5,6-dihydro-4H-thieno[2,3-b]thiopyran-2-yl)-1-cyclopropyl-8-methoxy-4-oxo-1,4-dihydro-3-quinolinecarboxylic acid hydrochloride]		0.05 µg/mL	0.125 µg/mL	0.1 µg/mL	0.1 µg/mL	0.2 µg/mL	0.25 µg/mL
COc1c(-c2cc3c(s2)CNCC3)ccc2c(=O)c(C(=O)O)cn(C3CC3)c12.Cl [Example 7, 1-cyclopropyl-8-methoxy-4-oxo-7-(4,5,6,7-tetrahydrothieno(2,3-c)pyridin-2-yl)-1,4-dihydro-3-quinolinecarboxylic acid hydrochloride]	188 to 189 °C	0.2 µg/mL	0.06 µg/mL	0.2 µg/mL	0.39 µg/mL	0.2 µg/mL	0.25 µg/mL
COc1c(-c2cc3c(s2)CCNC3)ccc2c(=O)c(C(=O)O)cn(C3CC3)c12.Cl [Example 2, 1-cyclopropyl-8-methoxy-4-oxo-7-(4,5,6,7-tetrahydrothieno[3,2-c]pyridin-2-yl)-1,4-dihydro-3-quinolinecarboxylic acid hydrochloride]	180 °C (dec.)	0.05 µg/mL	0.12 µg/mL	0.2 µg/mL	0.2 µg/mL	0.2 µg/mL	0.5 µg/mL
CC1CNCc2sc(-c3ccc4c(=O)c(C(=O)O)cn(C5CC5)c4n3)cc21.Cl (stereo not shown) [Example 32, 1-cyclopropyl-7-(4-methyl-4,5,6,7-tetrahydrothieno(2,3-c)pyrdin-2-yl)-4-oxo-1,4-dihydro[1,8]naphthyridine-3-carboxylic acid hydrochloride]		0.2 µg/mL	0.25 µg/mL	0.2 µg/mL	0.39 µg/mL	0.39 µg/mL	1 µg/mL
COc1c(-c2cc3c(s2)CC(O)CC3)ccc2c(=O)c(C(=O)O)cn(C3CC3)c12 (stereo not shown) [Example 47, 1-cyclopropyl-7-(6-hydroxy-4,5,6,7-tetrahydro-1-benzothien-2-yl)-8-methoxy-4-oxo-1,4-dihydro-3-quinolinecarboxylic acid]		0.01 µg/mL	0.5 µg/mL	0.02 µg/mL	0.2 µg/mL	1.56 µg/mL	0.5 µg/mL
